# Assay results as given in article PMC11187625, “New Labeled PET Analogues Enable the Functional Screening and Characterization of PET-Degrading Enzymes” (ACS Sustainable Chemistry & Engineering, 2024).
# Tested on: T1, A. niger lipase
# T1 construct: commercial preparation, Fluka Analytical
# Test: fluorescence, 4-mU release
# Assay type: biochemical, Aspergillus niger
# Conditions: 0.1 M phosphate pH 7, 30 °C, 5% DMSO
# Source text: fluorescence, 4-mU release on A. niger lipase
row,Km,Structure (SMILES)
1,0.6 ± 0.1 µM,"COC(=O)c1ccc(C(=O)OCCOC(=O)c2ccc(C(=O)Oc3ccc4c(C)cc(=O)oc4c3)cc2)cc1 [C, 2-((4-(Methoxycarbonyl)benzoyl)oxy)ethyl (4-Methyl-2-oxo-2H-chromen-7-yl) Terephthalate]"
2,5.7 ± 0.5 µM,"COC(=O)c1ccc(C(=O)Oc2ccc3c(C)cc(=O)oc3c2)cc1 [A, Methyl (4-Methyl-2-oxo-2H-chromen-7-yl) Terephthalate]"
3,1 ± 0.1 µM,"CCOCCOC(=O)c1ccc(C(=O)Oc2ccc3c(C)cc(=O)oc3c2)cc1 [B, 2-Ethoxyethyl (4-Methyl-2-oxo-2H-chromen-7-yl) Terephthalate]"
